Measured values: patent publication US20240415808A1, “Dosage Regimen for Fexuprazan Injection Composition” (Daewoong Pharmaceutical Co., Ltd., priority 2021, published 2024)

Test system: indomethacin-induced bleeding gastric ulcer
Assay: indomethacin-induced bleeding gastric ulcer model using male rats
Type: in vivo, rat
Settings: 1 mg/kg single dose tail vein, mean ± SD
Protocol: In order to evaluate the efficacy of fexuprazan against bleeding gastric ulcers, an indomethacin-induced bleeding gastric ulcer model using male rats was used.
Specifically, the previously prepared 1-(5-(2,4-difluorophenyl)-1-((3-fluorophenyl)sulfonyl)-4-methoxy-1H-pyrrol-3-yl)-N-methylmethanamine (hereinafter referred to as ‘fexuprazan’) hydrochloride was dissolved in a solution containing 30 wt. % of polyethylene glycol (Polyethylene Glycol 400) polymer in physiological saline. The concentration was adjusted so that 0, 0.1, 0.5, 1, 2 mg/kg based on fexuprazan weight could be administered to each test animal in a liquid volume of 1 mL/kg, and then each test animal was administered through the tail vein as a single dose. In addition, 1 mg/kg of esomeprazole magnesium trihydrate, which is a positive control, based on esomeprazole weight was administered as a single dose through the tail vein in test animals. After 30 minutes, 80 mg/kg of indomethacin was orally administered as a single dose to each test animal to induce gastric bleeding and ulceration. An autopsy was performed 5 hours after administration of indomethacin, and the stomach was removed. Then, the ulcer index (%) was measured using an image program (Leica Application Suite V4), and gastric hemorrhage and erosion state were evaluated through histopathological examination.

Question: For `COc1ccc2nc([S@@+]([O-])Cc3ncc(C)c(OC)c3C)[nH]c2c1` [Esomeprazole, esomeprazole magnesium trihydrate, reference compound], which “Ulcer index (%)” value (30 min before indomethacin 80 mg/kg oral, autopsy 5 h) is on record?
Answer: 6.1 ± 2.6 %

Question: And the Gastric erosion state (histopathological examination)?
Answer: 2.0 ± 1.8

Question: And the Gastric hemorrhage state (histopathological examination)?
Answer: 1.3 ± 1.6^
